One experiment relates to HCT116 cells. Description: Effect of inhibiting cancer cell proliferation (MTT) in HCT116 cells. Type of experiment: cell-based, human. To be noted: for inhibition at 100 µM: read-out: Cell growth inhibition (%) at 100 μM; for inhibition at 25 µM: read-out: Cell growth inhibition (%) at 25 μM. From the text:
HCT116 cells derived from human colorectal cancer were used, and an effect of inhibiting cancer cell proliferation of the biguanide derivative was confirmed by measuring a concentration value (cell growth inhibition concentration, GIC50) at which cell growth was inhibited by 50% using a 3-(4,5-dimethylthiazol-2-yl)-2,5-diphenyltetrazolium bromide (MTT) reagent.
First, HCT116 cells (purchased from the KCLB) were put on a 96-well plate and cultured in a DMEM medium supplemented with 10% fatal bovine serum (commercially available from Gibco Life Technologies (US)) for 16 hours so that approximately 5,000 cells were counted in each well. Subsequently, to obtain the GIC50 value of each compound, the culture media were treated with 100 μM, 25 μM, 6.25 μM, 1.56 μM or 0.39 μM of the compound, and then cultured for 48 hours. In order to determine whether the cells survived after treatment with the compounds, MTT (commercially available from AMRESCO (US)) was added to the culture media which were then cultured for another 3 hours. Formed formazane crystals were dissolved using dimethyl sulfoxide (DMSO) and the absorbance of the resulting solution was measured at 560 nm. After the 48-hour culture, a ratio of a living cell count on a well plate treated with the compounds synthesized in the Examples to a cell count cultured on a well plate not treated with the compound was indicated as cell viability (%) according to the concentration of each treated compound. The cell viability (%) was used to plot a cell viability curve graph and calculate a concentration (GIC50) value of the compound at which the growth was inhibited by 50%, thereby confirming the inhibition effect of cancer cell proliferation.

The test system of the next experiment is AMPK. Description: AMPK activation effect (AMPK [pT172] ELISA) in MCF7 cells. To be noted: 24 hours; for AMPK activation effect (%) 10 μM / AMPK activation effect (%) 50 μM / AMPK activation effect (%) 5 μM: AMPKα Thr172 phosphorylation relative to untreated cells; for AC150: concentration at which AMPK activation reached 150%. The experiment is classed as cell-based, human. As for the experimental part:
ELISA kit (Invitrogen, Catalog No. KH00651).
MCF7 cells were cultured in a DMEM medium supplemented with 10% fatal bovine serum (commercially available from Gibco Life Technologies (US)). Thereafter, the cultured MCF7 cells were put into a 6-well plate with approximately 5×10^5 cells per well, and cultured in an incubator supplied with 5% CO2. Culture media were treated with the derivatives synthesized in the Examples at concentrations of 5, 10 and 50 uM, and then cultured for 24 hours. […] Subsequently, the cells were lysed according to a method presented in the operation manual of the AMPK [pT172] ELISA kit, and 20 μg of a cell lysate was then yielded through protein assay. Thereafter, the AMPK activation effect was obtained by determining a degree of phosphorylation of a 172nd threonine residue (Thr172) of the AMPKα from the cell lysate according to the method presented in the operation manual of the AMPK [pT172] ELISA kit.
In general terms: ELISA stands for enzyme-linked immunosorbent assay.

Where [1] appears, read: Homo sapiens, HCT-116, 48 h, 25 μM.

The structures appear in SMILES notation. Some results are limits rather than exact numbers.

In general, GI50 refers to the concentration giving 50% growth inhibition. The low end stands for greater sensitivity of the cells, the high end for lower sensitivity of the cells. As usually defined, the inhibition is the relative decrease from the control value, in per cent. Turning to `CC1=CCN(C(=N)NC(=N)Nc2ccc(Cl)cc2)C1.Cl` [Example 17, N1-(3-methyl)-1,2-dihydropyrrole-N5-(4-chloro)phenyl biguanide hydrochloride], in the experiment on HCT116 cells (Homo sapiens, HCT-116, 48 h), the 50% growth inhibitory concentration (GI50) stood at 13.9 µM and the inhibition at 100 µM was found to be 99.7%. Besides, in the experiment with AMPK, the “AMPK activation effect (%) 10 μM” value worked out at 208% and the AC150 came to 4.7 µM.
For `COc1ccc(NC(=N)NC(=N)N2CC=CCC2)cc1.Cl` [Example 40, N1-1,2,3,6-tetrahydropyridine-N5-(4-methoxyl)phenyl biguanide hydrochloride], in the experiment with HCT116 cells (Homo sapiens, HCT-116, 48 h), the GI50 was above 100 µM and the inhibition at 100 µM is 37.4%. Besides, in the experiment with AMPK, the “AMPK activation effect (%) 10 μM” value was 122%, the “AMPK activation effect (%) 50 μM” value is 163% and the AC150 came to 37.8 µM.
In the same order, the values of `COc1ccc(NC(=N)NC(=N)N2CC=CC2)cc1.Cl` [Example 42, N1-1,2-dihydropyrrole-N5-(4-methoxyl)phenyl biguanide hydrochloride] are above 100 µM, 14%, 157%, 210% and 14.7 µM.
The like results for `Cl.N=C(NCc1cccc(C(F)(F)F)c1)NC(=N)N1CC=CCC1` [Example 57, N1-1,2,3,6-tetrahydropyridine-N5-(3-trifluoromethyl)benzyl biguanide hydrochloride] were, in that order, 26.9 µM, 97.8%, 279%, 579% and 2.7 µM.
In the case of `Cl.N=C(NC(=N)N1CC=CC1)Nc1ccc(F)c(C(F)(F)F)c1` [Example 46, N1-1,2-dihydropyrrole-N5-(4-fluoro, 3-trifluoromethyl)phenyl biguanide hydrochloride], in the experiment on HCT116 cells (Homo sapiens, HCT-116, 48 h), halving of growth (GI50) required 12 µM and the inhibition at 100 µM is 100%. For the same molecule, in the experiment on AMPK, the “AMPK activation effect (%) 10 μM” value came out at 448% and the AC150 turned out to be 1.6 µM.
`CC1CCCN(C(=N)NC(=N)NCc2ccc(Cl)cc2)C1.Cl` (centres unmarked) [Example 66, N1-(3-methyl)piperidine-N5-(4-chloro)benzyl biguanide hydrochloride]: in the experiment with HCT116 cells (Homo sapiens, HCT-116, 48 h), it took 18.5 µM to inhibit growth by half (GI50). Also, in the experiment on HCT116 cells (setting [1]), the inhibition at 25 µM came out at 67.4%. Besides, in the experiment on AMPK, the “AMPK activation effect (%) 5 μM” value was 101%, the “AMPK activation effect (%) 10 μM” value was 204% and the AC150 was 6.2 µM.
In the same order, the values of `CC1CCCCN1C(=N)NC(=N)Nc1ccc(OC(F)(F)F)c(F)c1.Cl` (centres unmarked) [Example 76, N1-(2-methyl)piperidine-N5-(3-fluoro, 4-trifluoromethoxy)phenyl biguanide hydrochloride] are 5.8 µM, 100%, 242%, 375% and 1.7 µM.
As to `Cl.N=C(NCc1ccc(C(F)(F)F)cc1)NC(=N)N1CC=CC1` [Example 13, N1-1,2-dihydropyrrole-N5-(4-trifluoromethyl)benzyl biguanide hydrochloride], in the experiment on HCT116 cells (Homo sapiens, HCT-116, 48 h), the GI50 stood at 77.1 µM and the inhibition at 100 µM is 57.8%. Further, in the experiment with AMPK, the “AMPK activation effect (%) 10 μM” value stood at 135%, the “AMPK activation effect (%) 50 μM” value was 462% and the AC150 turned out to be 9.0 µM.
`CC1CCCN(C(=N)NC(=N)Nc2cccc(OC(F)(F)F)c2)C1.Cl` (centres unmarked) [Example 83, N1-(3-methyl)piperidine-N5-(3-trifluoromethoxy)phenyl biguanide hydrochloride] returned a GI50 in the experiment on HCT116 cells (Homo sapiens, HCT-116, 48 h) of 6.8 µM. In the experiment on HCT116 cells (setting [1]), the inhibition at 25 µM amounted to 100%. In the experiment with AMPK, the “AMPK activation effect (%) 5 μM” value is 352%, the “AMPK activation effect (%) 10 μM” value was determined as 398% and the AC150 amounted to 0.5 µM.
With `CC1=CCN(C(=N)NC(=N)Nc2cccc(C(F)(F)F)c2)C1.Cl` [Example 19, N1-(3-methyl)-1,2-dihydropyrrole-N5-(3-trifluoromethyl)phenyl biguanide hydrochloride], in the experiment on HCT116 cells (Homo sapiens, HCT-116, 48 h), the GI50 turned out to be 9.1 µM and the inhibition at 100 µM turned out to be 99.6%. Also, in the experiment with AMPK, the “AMPK activation effect (%) 10 μM” value came out at 306% and the AC150 worked out at 1.5 µM.
In the experiment with HCT116 cells (Homo sapiens, HCT-116, 48 h), `CC1CCCCN1C(=N)NC(=N)Nc1ccc(OC(F)(F)F)cc1.Cl` (centres unmarked) [Example 72, N1-(2-methyl)piperidine-N5-(4-trifluoromethoxy)phenyl biguanide hydrochloride] returned a concentration for 50% growth inhibition (GI50) of 8 µM. Besides, the inhibition at 25 µM in the experiment with HCT116 cells (setting [1]) turned out to be 100%. Also, in the experiment on AMPK, the “AMPK activation effect (%) 5 μM” value came to 210%, the “AMPK activation effect (%) 10 μM” value was found to be 386% and the AC150 amounted to 2.0 µM.
`CCCNC(=N)NC(=N)N1CC=CCC1.Cl` [Example 60, N1-1,2,3,6-tetrahydropyridine-N5-propyl biguanide hydrochloride]: in the experiment with HCT116 cells (Homo sapiens, HCT-116, 48 h), halving of growth (GI50) required 99.8 µM and the inhibition at 100 µM is 50.1%. In the experiment with AMPK, the “AMPK activation effect (%) 10 μM” value was 108%, the “AMPK activation effect (%) 50 μM” value amounted to 338% and the AC150 was determined as 12.4 µM.
In the case of `CC1CCCN(C(=N)NC(=N)Nc2ccc(C(F)(F)F)cc2)C1.Cl` (centres unmarked) [Example 81, N1-(3-methyl)piperidine-N5-(4-trifluoromethyl)phenyl biguanide hydrochloride], the GI50 in the experiment with HCT116 cells (Homo sapiens, HCT-116, 48 h) was determined as 7.7 µM. In the experiment with HCT116 cells (setting [1]), the inhibition at 25 µM stood at 100%. Further, in the experiment on AMPK, the “AMPK activation effect (%) 5 μM” value is reported as 224%, the “AMPK activation effect (%) 10 μM” value is given as 396% and the AC150 was found to be 1.9 µM.
On to `Cl.N=C(NC(=N)N1CC=CCC1)Nc1ccc(Cl)cc1` [Example 35, N1-1,2,3,6-tetrahydropyridine-N5-(4-chloro)phenyl biguanide hydrochloride], for which, in the experiment with HCT116 cells (Homo sapiens, HCT-116, 48 h), the GI50 stood at 18.4 µM and the inhibition at 100 µM turned out to be 99.1%. Further, in the experiment with AMPK, the “AMPK activation effect (%) 10 μM” value is given as 314% and the AC150 came out at 2.4 µM.
In the same order, the values of `Cl.N=C(NC(=N)N1CC=CCC1)Nc1ccc(C(F)(F)F)cc1` [Example 29, N1-1,2,3,6-tetrahydropyridine-N5-(4-trifluoromethyl)phenyl biguanide hydrochloride] are 9.5 µM, 100%, 551% and 1.3 µM.
Molecule `CC1CCCC(C)N1C(=N)NC(=N)Nc1ccc(F)cc1.Cl` (centres unmarked) [Example 98, N1-(2,6-dimethyl)piperidine-N5-(4-fluoro)phenyl biguanide hydrochloride] came in with a GI50 in the experiment on HCT116 cells (Homo sapiens, HCT-116, 48 h) of 45.4 µM. The inhibition at 25 µM with HCT116 cells (setting [1]) stood at 28.2%. Further, in the experiment with AMPK, the “AMPK activation effect (%) 5 μM” value was found to be 239%, the “AMPK activation effect (%) 10 μM” value was 244% and the AC150 came out at 2.8 µM.
Consider `CC1CCCN(C(=N)NC(=N)Nc2ccc(F)c(C(F)(F)F)c2)C1.Cl` (centres unmarked) [Example 85, N1-(3-methyl)piperidine-N5-(4-fluoro, 3-trifluoromethyl)phenyl biguanide hydrochloride], for which the “Cell growth inhibition (%) at 25 μM” value in the experiment on HCT116 cells (25 μM, 48 hours, hydrochloride) is reported as 100.2%. The molecule also returned a GI50 in the experiment with HCT116 cells (48 hours, hydrochloride) of 7.1 µM. In the experiment with AMPK (hydrochloride), the “AMPK activation effect (%) 5 μM” value is 345%, the “AMPK activation effect (%) 10 μM” value is given as 436% and the AC150 was 0.7 µM.

The record behind these values is patent US9884821B2, “N1-cyclic amine-N5-substituted biguanide derivatives, methods of preparing the same and pharmaceutical composition comprising the same” (IMMUNOMET THERAPEUTICS INC., priority 2013, dated 2018).
